Tests used:
IRAK4 = IRAK4 (Homo sapiens (Human), UniProt Q9NWZ3); test: IRAK4 Inhibition Assay; format: biochemical; conditions: ATP 500 μM; IRAK4 0.6 nM
Method in brief: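 Mobility-shift kinase assay: 0.6 nM IRAK4, 500 μM ATP, 1.5 μM fluorescent peptide, 60 min, room temperature. Percent inhibition was normalised between enzyme-free and DMSO-only wells.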

[1] = tested on: Human whole blood stimulated with a TLR2 agonist (lipoteichoic acid), IL-6 levels; test: IRAK4 Whole Blood Assay; format: cell-based; conditions: Homo sapiens, lipoteichoic acid 10 μg/mL
Method in brief: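 IL-6 was quantified by cytometric bead assay in supernatants of human blood (ACD-A) stimulated for 5 h with lipoteichoic acid at 10 μg/mL final. Compound exposure preceded stimulation for 60 min at 37 °C, 5% CO2.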

[2] = Caco-2 Permeability Assay; format: in vitro ADME; conditions: human, Caco-2, test compound 3 μM
Method in brief: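 Bidirectional permeability measured over 2 h at 37° C, compound dosed at 3 μM in the donor compartment (apical for absorptive, basolateral for secretive) with plain buffer as receiver.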

Sequence of IRAK4 (Q9NWZ3 whole entry, species assumed): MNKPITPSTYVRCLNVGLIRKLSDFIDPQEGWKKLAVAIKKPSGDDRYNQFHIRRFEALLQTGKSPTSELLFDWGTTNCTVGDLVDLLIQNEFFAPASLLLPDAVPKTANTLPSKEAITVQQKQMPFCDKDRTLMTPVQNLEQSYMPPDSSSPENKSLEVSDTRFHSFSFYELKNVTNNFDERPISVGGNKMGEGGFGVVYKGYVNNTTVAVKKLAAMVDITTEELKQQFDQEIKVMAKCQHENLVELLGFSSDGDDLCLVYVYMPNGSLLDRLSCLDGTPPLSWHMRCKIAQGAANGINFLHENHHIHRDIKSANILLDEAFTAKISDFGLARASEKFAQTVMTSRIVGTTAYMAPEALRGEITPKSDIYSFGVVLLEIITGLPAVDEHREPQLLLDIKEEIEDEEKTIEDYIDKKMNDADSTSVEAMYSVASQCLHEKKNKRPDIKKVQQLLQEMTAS

Row | Compound | IC50 (IRAK4) [nM] | EC50 [1] [nM] | Papp at 2 h, 3 µM [2] [×10⁻⁶ cm/s]
1 | CC(=O)N1CC[C@@H](n2cc(-c3cnc(-n4ncc5cc(C#N)cnc54)cc3NC(C)C)nn2)[C@H](O)C1 (single isomer, unassigned) [Example 197, 1-(5-(1-((trans)-1-acetyl-3-hydroxypiperidin-4-yl)-1H-1,2,3-triazol-4-yl)-4-(isopropylamino)pyridin-2-yl)-1H-pyrazolo[3,4-b]pyridine-5-carbonitrile] | 3 | 170 | < 1.5
2 | CC(C)(O)CCc1cn(-c2cnc(-n3ncc4cc(C#N)cnc43)cc2NC2CCC(F)C2)nn1 (stereo not drawn) [Example 364, 1-(4-((3-fluorocyclopentyl)amino)-5-(4-(3-hydroxy-3-methylbutyl)-1H-1,2,3-triazol-1-yl)pyridin-2-yl)-1H-pyrazolo[3,4-b]pyridine-5-carbonitrile] | 3 | 250 | 4.5
3 | CC(C)Nc1cc(-n2ncc3cc(C#N)c(N)nc32)ncc1-c1cn(CCCO)nn1 [Example 29, 6-amino-1-(5-(1-(3-hydroxypropyl)-1H-1,2,3-triazol-4-yl)-4-(isopropylamino)pyridin-2-yl)-1H-pyrazolo[3,4-b]pyridine-5-carbonitrile] | 4 | 380 | < 1.5
4 | CCCn1cc(-c2cnc(-n3cnc4cc(C#N)cnc43)cc2N[C@@H](C)CO)nn1 [Example 53, (S)-3-(4-((1-hydroxypropan-2-yl)amino)-5-(1-propyl-1H-1,2,3-triazol-4-yl)pyridin-2-yl)-3H-imidazo [4,5-b]pyridine-6-carbonitrile] | 2 | 100 | 26.7
5 | CC(C)Nc1cc(-n2ncc3cc(C#N)cnc32)ncc1-c1cn([C@H](C)[C@H](C)O)nn1 (single isomer, unassigned) [Example 88] | 5 | 1290 | 7.1
6 | CC(C)Nc1cc(-n2ncc3cc(C#N)cnc32)ncc1-n1cc(CCCO)nn1 [Example 296, 1-(5-(4-(3-hydroxypropyl)-1H-1,2,3-triazol-1-yl)-4-(isopropylamino)pyridin-2-yl)-1H-pyrazolo[3,4-b]pyridine-5-carbonitrile] | 11 | 240 | 4.4
7 | N#Cc1cnc2c(cnn2-c2cc(NC3CC3)c(-c3cn(CCN4CCOCC4)nn3)cn2)c1 [Example 13, 1-(4-(cyclopropylamino)-5-(1-(2-morpholinoethyl)-1H-1,2,3-triazol-4-yl)pyridin-2-yl)-1H-pyrazolo[3,4-b]pyridine-5-carbonitrile] | 3 | 270 | 22.9
8 | CCCNc1cc(-n2ncc3cc(C#N)cnc32)ncc1-n1cc(CCC(C)(C)O)nn1 [Example 389, 1-(5-(4-(3-hydroxy-3-methylbutyl)-1H-1,2,3-triazol-1-yl)-4-(propylamino)pyridin-2-yl)-1H-pyrazolo[3,4-b]pyridine-5-carbonitrile] | 14 | 310 | 30.2
9 | CCOC(=O)N1CC[C@H](n2cc(-c3cnc(-n4ncc5cc(C#N)cnc54)cc3NC(C)C)nn2)[C@H](O)C1 [Example 180, (3R,4S)-ethyl 4-(4-(6-(5-cyano-1H-pyrazolo[3,4-b]pyridin-1-yl)-4-(isopropylamino)pyridin-3-yl)-1H-1,2,3-triazol-1-yl)-3-hydroxypiperidine-1-carboxylate] | 11 | 2140 | 3.2
10 | CC(=O)N1CC(c2cc(-c3cnc(-n4ncc5cc(C#N)cnc54)cc3NC(C)C)on2)C1 [Example 398, 1-(5-(3-(1-acetylazetidin-3-yl)isoxazol-5-yl)-4-(isopropylamino)pyridin-2-yl)-1H-pyrazolo[3,4-b]pyridine-5-carbonitrile] | 4 | 300 | 6.9
11 | CC(C)Nc1cc(-n2ncc3cc(C#N)cnc32)ncc1-c1cn(C[C@H](O)c2ccccc2)nn1 [Example 85, (R)-1-(5-(1-(2-hydroxy-2-phenylethyl)-1H-1,2,3-triazol-4-yl)-4-(isopropylamino)pyridin-2-yl)-1H-pyrazolo[3,4-b]pyridine-5-carbonitrile] | 5 | 310 | 6.9
12 | COC(=O)N1CC[C@@H](n2cc(-c3cnc(-n4ncc5cc(C#N)cnc54)cc3NC3CC3)nn2)[C@](C)(O)C1 (relative stereo) [Example 208, (trans)-methyl 4-(4-(6-(5-cyano-1H-pyrazolo[3,4-b]pyridin-1-yl)-4-(cyclopropylamino)pyridin-3-yl)-1H-1,2,3-triazol-1-yl)-3-hydroxy-3-methylpiperidine-1-carboxylate] | 6 | 1510 | 2.6
13 | CC(C)Nc1cc(-n2ncc3cc(C#N)cnc32)ncc1-n1cc(CCC(C)(C)OC(=O)C2CC2)nn1 [Example 382, 4-(1-(6-(5-cyano-1H-pyrazolo[3,4-b]pyridin-1-yl)-4-(isopropylamino)pyridin-3-yl)-1H-1,2,3-triazol-4-yl)-2-methylbutan-2-yl cyclopropanecarboxylate] | 2 | 460 | 24.8
14 | CCCc1cn(-c2cnc(-n3ncc4cc(C#N)cnc43)cc2NC(C)C)nn1 [Example 263, 1-(4-(isopropylamino)-5-(4-propyl-1H-1,2,3-triazol-1-yl)pyridin-2-yl)-1H-pyrazolo[3,4-b]pyridine-5-carbonitrile] | 15 | 330 | 7.8
15 | CCCn1cc(-c2cnc(-n3ncc4cc(C#N)cnc43)cc2NCC)nn1 [Example 54, 1-(4-(ethylamino)-5-(1-propyl-1H-1,2,3-triazol-4-yl)pyridin-2-yl)-1H-pyrazolo[3,4-b]pyridine-5-carbonitrile] | 9 | 1180 | 40.8
16 | CC(C)Nc1cc(-n2ncc3cnc(N)nc32)ncc1-n1cc(CCC(C)(C)O)nn1 [Example 350, 4-(1-(6-(6-amino-1H-pyrazolo[3,4-d]pyrimidin-1-yl)-4-(isopropylamino)pyridin-3-yl)-1H-1,2,3-triazol-4-yl)-2-methylbutan-2-ol] | 6 | 280 | 6.4
17 | [2H]C([2H])([2H])C(=O)N1CC(n2cc(-c3cnc(-n4ncc5cc(C#N)cnc54)cc3NC(C)C)nn2)C1 [Example 140, 1-(5-(1-(1-trideuteroacetylazetidin-3-yl)-1H-1,2,3-triazol-4-yl)-4-(isopropylamino)pyridin-2-yl)-1H-pyrazolo[3,4-b]pyridine-5-carbonitrile] | 3 | 360 | < 1.5
18 | CC(C)Nc1cc(-n2ccc3cncnc32)ncc1-c1cn([C@@H]2CCNC[C@H]2O)nn1 [Example 4, (3R,4R)-4-(4-(4-(isopropylamino)-6-(7H-pyrrolo[2,3-d]pyrimidin-7-yl)pyridin-3-yl)-1H-1,2,3-triazol-1-yl)piperidin-3-ol] | 3 | 2530 | < 1.5
19 | CC(=O)N1CCC[C@@H]1c1cc(-c2cnc(-n3ncc4cc(C#N)cnc43)cc2NC(C)C)on1 [Example 417, (R)-1-(5-(3-(1-acetylpyrrolidin-2-yl)isoxazol-5-yl)-4-(isopropylamino)pyridin-2-yl)-1H-pyrazolo [3,4-b]pyridine-5-carbonitrile] | 7 | 340 | 29.2
20 | CC(C)Nc1cc(-n2ncc3cc(C#N)cnc32)ncc1-c1cn(CC2CCC2)nn1 [Example 117, 1-(5-(1-(cyclobutylmethyl)-1H-1,2,3-triazol-4-yl)-4-(isopropylamino)pyridin-2-yl)-1H-pyrazolo[3,4-b]pyridine-5-carbonitrile] | 4 | 1190 | 10.1
21 | CC(C)(O)CCc1cn(-c2cnc(-n3ncc4cc(C#N)cnc43)cc2NC(CF)CF)nn1 [Example 377, 1-(4-((1,3-difluoropropan-2-yl)amino)-5-(4-(3-hydroxy-3-methylbutyl)-1H-1,2,3-triazol-1-yl)pyridin-2-yl)-1H-pyrazolo[3,4-b]pyridine-5-carbonitrile] | 7 | 240 | < 1.5
22 | CC(C)Nc1cc(-n2ncc3cc(C#N)cnc32)ncc1-c1cn([C@H]2CCCC[C@H]2O)nn1 [Example 216, 1-(5-(1-((1S,2R)-2-hydroxycyclohexyl)-1H-1,2,3-triazol-4-yl)-4-(isopropylamino)pyridin-2-yl)-1H-pyrazolo[3,4-b]pyridine-5-carbonitrile] | 2 | 1650 | 7.3
23 | CC(C)Nc1cc(-n2ncc3cc(C#N)cnc32)ncc1-c1cc([C@@H]2COCCN2)on1 [Example 428, (S)-1-(4-(isopropylamino)-5-(5-(morpholin-3-yl)isoxazol-3-yl)pyridin-2-yl)-1H-pyrazolo[3,4-b]pyridine-5-carbonitrile] | 4 | 460 | 26.3
24 | CC(=O)N1CC[C@@H](n2cc(-c3cnc(-n4ncc5cc(C#N)cnc54)cc3NC(C)C)nn2)[C@H](O)C1 (single isomer, unassigned) [Example 203] | 4 | 720 | < 1.5
25 | CC(C)Nc1cc(-n2ncc3cc(C#N)cnc32)ncc1-c1cn(C2CCOC2)nn1 (stereo not drawn) [Example 214, 1-(4-(isopropylamino)-5-(1-(tetrahydrofuran-3-yl)-1H-1,2,3-triazol-4-yl)pyridin-2-yl)-1H-pyrazolo[3,4-b]pyridine-5-carbonitrile] | 7 | 920 | 13.6
